Results reported in US9999619B2, “Piperidin-4-yl azetidine derivatives as JAK1 inhibitors” (Incyte Corporation, priority 2010, dated 2018).

Experiments:
[1] = molecular target: Jak2 (a.a. 828-1132) (Homo sapiens (Human), UniProt O60674); assay: In vitro JAK kinase assay (HTRF, phosphorylation of a biotinylated peptide), JAK2; assay type: biochemical; details: measured at 1 mM ATP
Protocol: (§1) Compounds herein were tested for inhibitory activity of JAK targets according to the following in vitro assay described in Park et al., Analytical Biochemistry 1999, 269, 94-104. The catalytic domains of human JAK1 (a.a. 837-1142), Jak2 (a.a. 828-1132) and Jak3 (a.a. 781-1124) with an N-terminal His tag were expressed using baculovirus in insect cells and purified. The catalytic activity of JAK1, JAK2 or JAK3 was assayed by measuring the phosphorylation of a biotinylated peptide. The phosphorylated peptide was detected by homogenous time resolved fluorescence (HTRF). […] Reactions were carried out at room temperature for 1 hr and then stopped with 20 μL 45 mM EDTA, 300 nM SA-APC, 6 nM Eu-Py20 in assay buffer (Perkin Elmer, Boston, Mass.). Binding to the Europium labeled antibody took place for 40 minutes and HTRF signal was measured on a Fusion plate reader (Perkin Elmer, Boston, Mass.).

[2] = molecular target: human JAK1 (a.a. 837-1142) (Homo sapiens, UniProt P23458); assay: In vitro JAK kinase assay (HTRF, phosphorylation of a biotinylated peptide), JAK1; assay type: biochemical; details: measured at 1 mM ATP
Protocol: as §1

Chain of Jak2 (a.a. 828-1132) (O60674 828-1132): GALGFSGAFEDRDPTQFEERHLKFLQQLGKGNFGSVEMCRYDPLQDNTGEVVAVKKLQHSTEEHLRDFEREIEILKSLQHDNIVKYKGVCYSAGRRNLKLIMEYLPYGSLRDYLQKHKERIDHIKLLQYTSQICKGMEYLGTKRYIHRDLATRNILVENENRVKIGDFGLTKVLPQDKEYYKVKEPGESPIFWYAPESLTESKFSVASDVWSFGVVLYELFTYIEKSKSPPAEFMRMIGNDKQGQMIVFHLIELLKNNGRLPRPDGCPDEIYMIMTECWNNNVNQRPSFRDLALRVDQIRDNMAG

IC50 [1] [nM]	IC50 [2] [nM]	SMILES
≤ 10	–	COc1cc(C(F)(F)F)sc1C(=O)N1CCC(N2CC(CC#N)(n3cc(-c4ncnc5[nH]ccc45)cn3)C2)CC1 [Example 70, {1-{1-[3-methoxy-5-(trifluoromethyl)-2-thienylcarbonyl]piperidin-4-yl}-3-[4-(7H-pyrrolo[2,3-d]pyrimidin-4-yl)-1H-pyrazol-1-yl]azetidin-3-yl}acetonitrile]
≤ 10	≤ 5	Cc1csc(C(=O)N2CCC(N3CC(CC#N)(n4cc(-c5ncnc6[nH]ccc56)cn4)C3)CC2)c1 [Example 79, {1-{1-[(4-meth1-2-thienyl)carbonyl]piperidin-4-yl}-3-[4-(7H-pyrrolo[2,3-d]pyrimidin-4-yl)-1H-pyrazol-1-yl]azetidin-3-yl}acetonitrile]
10 to 50	–	CCS(=O)(=O)N1CCC(N2CC(CC#N)(n3cc(-c4ncnc5[nH]ccc45)cn3)C2)CC1 [Example 255, {1-[1-(ethylsulfonyl)piperidin-4-yl]-3-[4-(7H-pyrrolo[2,3-d]pyrimidin-4-yl)-1H-pyrazol-1-yl]azetidin-3-yl}acetonitrile]
10 to 50	5 to 20	CC1CC(N2CC(CC#N)(n3cc(-c4ncnc5[nH]ccc45)cn3)C2)CCN1Cc1c(F)cccc1Cl (single isomer, unassigned) [Example 245, {1-[1-(2-chloro-6-fluorobenzyl)-2-methylpiperidin-4-yl]-3-[4-(7H-pyrrolo[2,3-d]pyrimidin-4-yl)-1H-pyrazol-1-yl]azetidin-3-yl}acetonitrile]
≤ 10	≤ 5	N#CCC1(n2cc(-c3ncnc4[nH]ccc34)cn2)CN(C2CCN(C(=O)c3ccc(-c4cccnc4)cc3F)CC2)C1 [Example 120, {1-[1-(2-fluoro-4-pyridin-3-ylbenzoyl)piperidin-4-yl]-3-[4-(7H-pyrrolo[2,3-d]pyrimidin-4-yl)-1H-pyrazol-1-yl]azetidin-3-yl}acetonitrile]
10 to 50	–	CS(=O)(=O)N1CCC(N2CC(CC#N)(n3cc(-c4ncnc5[nH]ccc45)cn3)C2)CC1 [Example 254, {1-[1-(methylsulfonyl)piperidin-4-yl]-3-[4-(7H-pyrrolo[2,3-d]pyrimidin-4-yl)-1H-pyrazol-1-yl]azetidin-3-yl}acetonitrile]
≤ 10	≤ 5	N#CCC1(n2cc(-c3ncnc4[nH]ccc34)cn2)CN(C2CCN(C(=O)c3cccc(Cl)c3)CC2)C1 [Example 19, {1-[1-(3-chlorobenzoyl)piperidin-4-yl]-3-[4-(7H-pyrrolo[2,3-d]pyrimidin-4-yl)-1H-pyrazol-1-yl]azetidin-3-yl}acetonitrile]
50 to 100	–	CSc1ccc(C(=O)N2CCC(N3CC(CC#N)(n4cc(-c5ncnc6[nH]ccc56)cn4)C3)CC2)cc1F [Example 62, {1-{1-[3-fluoro-4-(methylthio)benzoyl]piperidin-4-yl}-3-[4-(7H-pyrrolo[2,3-d]pyrimidin-4-yl)-1H-pyrazol-1-yl]azetidin-3-yl}acetonitrile]
50 to 100	≤ 5	[2H]C1([2H])CN(C(=O)c2ccnc(C(F)(F)F)c2F)CC([2H])([2H])C1([2H])N1CC(CC#N)(n2cc(-c3ncnc4[nH]ccc34)cn2)C1 [Example 364, {1-{1-[3-Fluoro-2-(trifluoromethyl)isonicotinoyl]3,3,4,5,5-pentadeuteropiperidin-4-yl}-3-[4-(7H-pyrrolo[2,3-d]pyrimidin-4-yl)-1H-pyrazol-1-yl]azetidin-3-yl}acetonitrile]
10 to 50	5 to 20	CC1CC(N2CC(CC#N)(n3cc(-c4ncnc5[nH]ccc45)cn3)C2)CCN1Cc1c(F)cccc1Cl (single isomer, unassigned) [Example 244, {1-[1-(2-chloro-6-fluorobenzyl)-2-methylpiperidin-4-yl]-3-[4-(7H-pyrrolo[2,3-d]pyrimidin-4-yl)-1H-pyrazol-1-yl]azetidin-3-yl}acetonitrile]

More lines, now with the values behind:

SMILES	IC50 [1] [nM]	IC50 [2] [nM]
N#CCC1(n2cc(-c3ncnc4[nH]ccc34)cn2)CN(C2CCN(C(=O)Nc3ccc(F)cc3C(F)(F)F)CC2)C1 [Example 154, 4-{3-(Cyanomethyl)-3-[4-(7H-pyrrolo[2,3-d]pyrimidin-4-yl)-1H-pyrazol-1-yl]azetidin-1-yl}-N-[4-fluoro-2-(trifluoromethyl)phenyl]piperidine-1-carboxamide]	10 to 50	≤ 5
N#CCC1(n2cc(-c3ncnc4[nH]ccc34)cn2)CN(C2CC3CCC(C2)N3C(=O)C2CCC(F)(F)CC2)C1 (stereo not shown) [Example 148, {1-{8-[(4,4-difluorocyclohexyl)carbonyl]-8-azabicyclo[3.2.1]oct-3-yl}-3-[4-(7H-pyrrolo[2,3-d]pyrimidin-4-yl)-1H-pyrazol-1-yl]azetidin-3-yl}acetonitrile]	≤ 10	–
N#CCC1(n2cc(-c3ncnc4[nH]ccc34)cn2)CN(C2CCN(C(=O)c3ccnc(C(F)(F)F)n3)CC2)C1 [Example 85, [3-[4-(7H-pyrrolo[2,3-d]pyrimidin-4-yl)-1H-pyrazol-1-yl]-1-(1-{[2-(trifluoromethyl)pyrimidin-4-yl]carbonyl}piperidin-4-yl)azetidin-3-yl]acetonitrile]	> 100	5 to 20
N#CCC1(n2cc(-c3ncnc4[nH]ccc34)cn2)CN(C2CCN(C(=O)OCC3CCCCC3)CC2)C1 [Example 397, cyclohexylmethyl 4-{3-(cyanomethyl)-3-[4-(7H-pyrrolo[2,3-d]pyrimidin-4-yl)-1H-pyrazol-1-yl]azetidin-1-yl}piperidine-1-carboxylate]	10 to 50	–
N#CCC1(n2cc(-c3ncnc4[nH]ccc34)cn2)CN(C2CC3CCC(C2)N3C(=O)C2CCCCC2)C1 (stereo not shown) [Example 147, {1-[8-(cyclohexylcarbonyl)-8-azabicyclo[3.2.1]oct-3-yl]-3-[4-(7H-pyrrolo[2,3-d]pyrimidin-4-yl)-1H-pyrazol-1-yl]azetidin-3-yl}acetonitrile]	≤ 10	≤ 5
N#CCC1(n2cc(-c3ncnc4[nH]ccc34)cn2)CN(C2CCN(C(=O)c3ccc(C#N)c(F)c3)CC2)C1 [Example 66, 4-[(4-{3-(cyanomethyl)-3-[4-(7H-pyrrolo[2,3-d]pyrimidin-4-yl)-1H-pyrazol-1-yl]azetidin-1-yl}piperidin-1-yl)carbonyl]-2-fluorobenzonitrile]	50 to 100	–
N#CCC1(n2cc(-c3ncnc4[nH]ccc34)cn2)CN(C2CCN(C(=O)c3ccc(-c4nccs4)c(F)c3)CC2)C1 [Example 122, {1-{1-[3-fluoro-4-(1,3-thiazol-2-yl)benzoyl]piperidin-4-yl}-3-[4-(7H-pyrrolo[2,3-d]pyrimidin-4-yl)-1H-pyrazol-1-yl]azetidin-3-yl}acetonitrile]	10 to 50	–
N#CCC1(n2cc(-c3ncnc4[nH]ccc34)cn2)CN(C2CCN(S(=O)(=O)C3CC3)CC2)C1 [Example 256, {1-[1-(cyclopropylsulfonyl)piperidin-4-yl]-3-[4-(7H-pyrrolo[2,3-d]pyrimidin-4-yl)-1H-pyrazol-1-yl]azetidin-3-yl}acetonitrile]	10 to 50	–
Cc1ccc(C#N)c(N2CCC(C(=O)N3CCC(N4CC(CC#N)(n5cc(-c6ncnc7[nH]ccc67)cn5)C4)CC3)CC2)n1 [Example 108, 2-{4-[(4-{3-(cyanomethyl)-3-[4-(7H-pyrrolo[2,3-d]pyrimidin-4-yl)-1H-pyrazol-1-yl]azetidin-1-yl}piperidin-1-yl)carbonyl]piperidin-1-yl}-6-methylnicotinonitrile]	10 to 50	–
